Assay results reported in patent US20260240851A1, “Treatment of Parkinson's Disease in a Patient Using a Glucocerebrosidase Activator” (BIAL - R&D Investments, S.A., priority 2023, published 2026).
Like-named read-outs stand apart in the source and are kept apart here.

How the values were obtained:
[1] = after 6 days of dosing with 60 mg, Sinemet portion
Description: This was a Phase 1, non-randomized, open-label, 2-cohort, cross-over, DDI study in healthy male and female subjects.
In Cohort 1, a single oral dose 100 mg/25 mg levodopa-carbidopa (Sinemet®) IR was administered alone on Day 1.

[2] = J. M den Heijer, 2021; cited from earlier work
[3] = LTI-291-002 multiple ascending dose study: plasma and CSF pharmacokinetics; assay type: in vivo, human
Description: This study was a phase 1, randomized, double-blind, placebo-controlled, multiple ascending dose study of Compound A in 4 cohorts of middle-aged to elderly healthy participants (aged 52 to 75 years). […] A total of 39 healthy subjects were enrolled in 4 sequential cohorts. Subjects in each cohort received once-daily oral doses of 3 mg (n=7), 10 mg (n=8), 30 mg (n=8), or 60 mg (n=8) Compound A or placebo (n=8) for 14 days. Pharmacokinetic parameters were determined for each dose at Day 1, Day 7, and Day 14. Cerebrospinal fluid samples for Compound A concentrations were measured before the first dose and 4 hours after the last dose for each dose level. GluCer, glucosyl sphingosine (GluSph), and lactosyl-ceramide (LacCer) were measured in plasma, PBMCs, and CSF as biomarkers of pharmacological effects. Pharmacodynamic measurements consisted of battery of CNS (NeuroCart®) assessments including Saccadic Eye Movements, Smooth Pursuit Eye Movements, Adaptive Tracking, Body Sway, Visual Verbal Learning Test, and pharmaco-EEG.

[4] = tested on: GluCer, GluSph and LacCer in plasma, PBMCs and CSF; assay: LTI-291-003: glycolipid biomarkers; assay type: in vivo, human; details: for GluCer and LacCer in PBMCs: GBA-PD
Description: GluCer, GluSph, and LacCer were measured in plasma, PBMCs, and CSF as biomarkers of pharmacological effects. The pharmacodynamic evaluations also consisted of a battery of NeuroCart assessments (Saccadic Eye Movements, Smooth Pursuit Eye Movements, Adaptive Tracking, Body Sway, and Visual Verbal Learning Test); functional outcome measures (MDS-UPDRS Part III, and the MMSE); and pharmaco-EEG.

[5] = 3 mg daily, dose 1, geometric mean
[6] = 3 mg daily, dose 7, geometric mean
[7] = 3 mg daily, dose 14, geometric mean
[8] = 10 mg daily, dose 1, geometric mean
[9] = 10 mg daily, dose 7, geometric mean
[10] = 10 mg daily, dose 14, geometric mean
[11] = 30 mg daily, dose 1, geometric mean
[12] = 30 mg daily, dose 7, geometric mean
[13] = 30 mg daily, dose 14, geometric mean
[14] = 60 mg daily, dose 1, geometric mean
[15] = 60 mg daily, dose 7, geometric mean
[16] = 60 mg daily, dose 14, geometric mean
[17] = human, plasma, oral, 3 mg, 3 mg daily, dose 1, geometric mean
[18] = human, plasma, oral, 3 mg, 3 mg daily, dose 7, geometric mean
[19] = human, plasma, oral, 3 mg, 3 mg daily, dose 14, geometric mean
[20] = human, plasma, oral, 10 mg, 10 mg daily, dose 1, geometric mean
[21] = human, plasma, oral, 10 mg, 10 mg daily, dose 7, geometric mean
[22] = human, plasma, oral, 10 mg, 10 mg daily, dose 14, geometric mean
[23] = human, plasma, oral, 30 mg, 30 mg daily, dose 1, geometric mean
[24] = human, plasma, oral, 30 mg, 30 mg daily, dose 7, geometric mean
[25] = human, plasma, oral, 30 mg, 30 mg daily, dose 14, geometric mean
[26] = human, plasma, oral, 60 mg, 60 mg daily, dose 1, geometric mean
[27] = human, plasma, oral, 60 mg, 60 mg daily, dose 7, geometric mean
[28] = human, plasma, oral, 60 mg, 60 mg daily, dose 14, geometric mean

**Q.** What does the source list for CCCCCO[C@H]1CC[C@H](NC(=O)c2cnn3c(C)cc(C)nc23)CC1 [Compound A, 5,7-dimethyl-N-((1S*,4S)-4-(pentyloxy)cyclohexyl)pyrazolo[1,5-a]pyrimidine-3-carboxamide]?
**A.** steady state concentrations of Compound A [1]: appeared not to have been reached; safety and tolerability in healthy humans [2]: generally well tolerated; AUC0-inf/dose [3, 5]: 818 ng·h/mL/mg; Cmax/dose [3, 5]: 29.7 ng/mL/mg; AUC0-inf/dose [3, 6]: 1570 ng·h/mL/mg; Accumulation Index [3, 6]: 2.45; Cavg [3, 6]: 0.0801 µg/mL; Cmax/dose [3, 6]: 47.2 ng/mL/mg; AUC0-inf/dose [3, 7]: 2520 ng·h/mL/mg; Accumulation Index [3, 7]: 2.78; Cavg [3, 7]: 0.115 µg/mL; Cmax/dose [3, 7]: 51.0 ng/mL/mg; Fluctuation [3, 7]: 52.9%; AUC0-inf/dose [3, 8]: 613 ng·h/mL/mg; Cmax/dose [3, 8]: 30.7 ng/mL/mg; AUC0-inf/dose [3, 9]: 1780 ng·h/mL/mg; Accumulation Index [3, 9]: 2.29; Cavg [3, 9]: 0.322 µg/mL; Cmax/dose [3, 9]: 50.5 ng/mL/mg; AUC0-inf/dose [3, 10]: 1860 ng·h/mL/mg; Accumulation Index [3, 10]: 2.49; Cavg [3, 10]: 0.313 µg/mL; Cmax/dose [3, 10]: 49.3 ng/mL/mg; Fluctuation [3, 10]: 76.0%; AUC0-inf/dose [3, 11]: 753 ng·h/mL/mg; Cmax/dose [3, 11]: 29.0 ng/mL/mg; AUC0-inf/dose [3, 12]: 1890 ng·h/mL/mg; Accumulation Index [3, 12]: 2.11; Cavg [3, 12]: 1.1 µg/mL; Cmax/dose [3, 12]: 53.3 ng/mL/mg; AUC0-inf/dose [3, 13]: 4620 ng·h/mL/mg; Accumulation Index [3, 13]: 5.22; Cavg [3, 13]: 1.09 µg/mL; Cmax/dose [3, 13]: 50.0 ng/mL/mg; Fluctuation [3, 13]: 58.1%; AUC0-inf/dose [3, 14]: 655 ng·h/mL/mg; Cmax/dose [3, 14]: 32.6 ng/mL/mg; AUC0-inf/dose [3, 15]: 2310 ng·h/mL/mg; Accumulation Index [3, 15]: 2.72; Cavg [3, 15]: 2.17 µg/mL; Cmax/dose [3, 15]: 53.2 ng/mL/mg; AUC0-inf/dose [3, 16]: 2160 ng·h/mL/mg; Accumulation Index [3, 16]: 2.53; Cavg [3, 16]: 2.12 µg/mL; Cmax/dose [3, 16]: 51.2 ng/mL/mg; Fluctuation [3, 16]: 67.6%; total exposure (Cmax and AUC0-24) versus dose ([3]; 3 to 60 mg, after 1st, 7th and 14th dose): increase in a dose proportional manner; Kp at 4 h ([3]; human, CSF and plasma, oral, after the 14th daily dose, across dose levels, read-out: CSF-to-plasma concentration ratio, mean): 0.0122 to 0.0128; half-life ([3]; human, in vivo, oral, multiple doses, read-out: t½ after multiple doses in Trial LTI-291-002): 25 to 35 h; AUC(0-inf) [3, 17]: 2.45 µg·h/mL; Cmax [3, 17]: 0.0891 µg/mL; AUC(0-t) ([3]; human, plasma, oral, 3 mg, 3 mg daily, dose 1, geometric mean, read-out: AUC0-24): 1.05 µg·h/mL; AUC(0-t) ([3]; human, plasma, oral, 3 mg, 3 mg daily, dose 1, geometric mean, read-out: AUC0-last): 1.04 µg·h/mL; half-life ([3]; human, plasma, oral, 3 mg, 3 mg daily, dose 1, geometric mean, read-out: t½ (converted)): 27.9 h; AUC(0-inf) [3, 18]: 4.72 µg·h/mL; Cmax [3, 18]: 0.142 µg/mL; AUC(0-t) ([3]; human, plasma, oral, 3 mg, 3 mg daily, dose 7, geometric mean, read-out: AUC0-24): 1.92 µg·h/mL; AUC(0-t) ([3]; human, plasma, oral, 3 mg, 3 mg daily, dose 7, geometric mean, read-out: AUC0-last): 2.42 µg·h/mL; half-life ([3]; human, plasma, oral, 3 mg, 3 mg daily, dose 7, geometric mean, read-out: t½ (converted)): 31.3 h; AUC(0-inf) [3, 19]: 7.56 µg·h/mL; Cmax [3, 19]: 0.153 µg/mL; AUC(0-t) ([3]; human, plasma, oral, 3 mg, 3 mg daily, dose 14, geometric mean, read-out: AUC0-24): 2.77 µg·h/mL; AUC(0-t) ([3]; human, plasma, oral, 3 mg, 3 mg daily, dose 14, geometric mean, read-out: AUC0-last): 4.51 µg·h/mL; half-life ([3]; human, plasma, oral, 3 mg, 3 mg daily, dose 14, geometric mean, read-out: t½ (converted)): 36.5 h; AUC(0-inf) [3, 20]: 6.13 µg·h/mL; Cmax [3, 20]: 0.307 µg/mL; AUC(0-t) ([3]; human, plasma, oral, 10 mg, 10 mg daily, dose 1, geometric mean, read-out: AUC0-24): 3.41 µg·h/mL; AUC(0-t) ([3]; human, plasma, oral, 10 mg, 10 mg daily, dose 1, geometric mean, read-out: AUC0-last): 3.38 µg·h/mL; half-life ([3]; human, plasma, oral, 10 mg, 10 mg daily, dose 1, geometric mean, read-out: t½ (converted)): 20.7 h; AUC(0-inf) [3, 21]: 17.8 µg·h/mL; Cmax [3, 21]: 0.505 µg/mL; AUC(0-t) ([3]; human, plasma, oral, 10 mg, 10 mg daily, dose 7, geometric mean, read-out: AUC0-24): 7.73 µg·h/mL; AUC(0-t) ([3]; human, plasma, oral, 10 mg, 10 mg daily, dose 7, geometric mean, read-out: AUC0-last): 7.82 µg·h/mL; half-life ([3]; human, plasma, oral, 10 mg, 10 mg daily, dose 7, geometric mean, read-out: t½ (converted)): 28.7 h; AUC(0-inf) [3, 22]: 18.6 µg·h/mL; Cmax [3, 22]: 0.493 µg/mL; AUC(0-t) ([3]; human, plasma, oral, 10 mg, 10 mg daily, dose 14, geometric mean, read-out: AUC0-24): 7.51 µg·h/mL; AUC(0-t) ([3]; human, plasma, oral, 10 mg, 10 mg daily, dose 14, geometric mean, read-out: AUC0-last): 11.9 µg·h/mL; half-life ([3]; human, plasma, oral, 10 mg, 10 mg daily, dose 14, geometric mean, read-out: t½ (converted)): 32.1 h; AUC(0-inf) [3, 23]: 22.6 µg·h/mL; Cmax [3, 23]: 0.869 µg/mL; AUC(0-t) ([3]; human, plasma, oral, 30 mg, 30 mg daily, dose 1, geometric mean, read-out: AUC0-24): 10.6 µg·h/mL; AUC(0-t) ([3]; human, plasma, oral, 30 mg, 30 mg daily, dose 1, geometric mean, read-out: AUC0-last): 10.4 µg·h/mL; half-life ([3]; human, plasma, oral, 30 mg, 30 mg daily, dose 1, geometric mean, read-out: t½ (converted)): 26 h; AUC(0-inf) [3, 24]: 56.8 µg·h/mL; Cmax [3, 24]: 1.6 µg/mL; AUC(0-t) ([3]; human, plasma, oral, 30 mg, 30 mg daily, dose 7, geometric mean, read-out: AUC0-24): 26.5 µg·h/mL; AUC(0-t) ([3]; human, plasma, oral, 30 mg, 30 mg daily, dose 7, geometric mean, read-out: AUC0-last): 26.3 µg·h/mL; half-life ([3]; human, plasma, oral, 30 mg, 30 mg daily, dose 7, geometric mean, read-out: t½ (converted)): 25.7 h; AUC(0-inf) [3, 25]: 139 µg·h/mL; Cmax [3, 25]: 1.5 µg/mL; AUC(0-t) ([3]; human, plasma, oral, 30 mg, 30 mg daily, dose 14, geometric mean, read-out: AUC0-24): 26.2 µg·h/mL; AUC(0-t) ([3]; human, plasma, oral, 30 mg, 30 mg daily, dose 14, geometric mean, read-out: AUC0-last): 45 µg·h/mL; half-life ([3]; human, plasma, oral, 30 mg, 30 mg daily, dose 14, geometric mean, read-out: t½ (converted)): 75 h; AUC(0-inf) [3, 26]: 39.3 µg·h/mL; Cmax [3, 26]: 1.95 µg/mL; AUC(0-t) ([3]; human, plasma, oral, 60 mg, 60 mg daily, dose 1, geometric mean, read-out: AUC0-24): 19.6 µg·h/mL; AUC(0-t) ([3]; human, plasma, oral, 60 mg, 60 mg daily, dose 1, geometric mean, read-out: AUC0-last): 19.2 µg·h/mL; half-life ([3]; human, plasma, oral, 60 mg, 60 mg daily, dose 1, geometric mean, read-out: t½ (converted)): 25.1 h; AUC(0-inf) [3, 27]: 139 µg·h/mL; Cmax [3, 27]: 3.19 µg/mL; AUC(0-t) ([3]; human, plasma, oral, 60 mg, 60 mg daily, dose 7, geometric mean, read-out: AUC0-24): 52.1 µg·h/mL; AUC(0-t) ([3]; human, plasma, oral, 60 mg, 60 mg daily, dose 7, geometric mean, read-out: AUC0-last): 50.3 µg·h/mL; half-life ([3]; human, plasma, oral, 60 mg, 60 mg daily, dose 7, geometric mean, read-out: t½ (converted)): 35.8 h; AUC(0-inf) [3, 28]: 130 µg·h/mL; Cmax [3, 28]: 3.07 µg/mL; AUC(0-t) ([3]; human, plasma, oral, 60 mg, 60 mg daily, dose 14, geometric mean, read-out: AUC0-24): 50.9 µg·h/mL; AUC(0-t) ([3]; human, plasma, oral, 60 mg, 60 mg daily, dose 14, geometric mean, read-out: AUC0-last): 82 µg·h/mL; half-life ([3]; human, plasma, oral, 60 mg, 60 mg daily, dose 14, geometric mean, read-out: t½ (converted)): 32.9 h; half-life ([3]; human, plasma, oral, after the 1st dose, across dose levels, read-out: mean t1/2): 20.7 to 27.9 h; half-life ([3]; human, plasma, oral, after the 7th dose, across dose levels, read-out: mean t1/2): 25.7 to 35.8 h; half-life ([3]; human, plasma, oral, after the 14th dose, across dose levels, read-out: mean t1/2): 32.1 to 75 h; steady-state conditions ([3]; once-daily dosing): achieved by the 7th daily dose; GluCer and LacCer in PBMCs ([4]; 7 and 14 days of treatment): statistically significant increase; dose-response or exposure-response of PBMC glycolipid effects ([4]; 10, 30, 60 mg/day): no obvious dose-response or exposure response relationship; plasma or CSF levels of glycolipids ([4]; 28 days): no obvious changes; GluCer and LacCer in PBMCs ([4]; 28 days of treatment): smaller increase; PBMC glycolipid effects by severity of GBA1 mutation ([4]; Gaucher or major vs polymorphism GBA1 mutations): generally greater; Intracellular GluSph in PBMCs ([4]; vs placebo): did not show a clear response
